Where two headings read alike, the source gives them in different places. Non-standard residues stand in square brackets, D forms with d. Residues, ends and D or L forms follow the SMILES beside them.
Assays:
human gastric explants = test: Ex vivo toxicity assay, histological examination (H&E) of human gastric explants; type: cell-based; conditions: 2, 4 or 8 h; peptides 100 µM, CTAB 300 µM; H&E staining
Protocol: To further evaluate the innocuity of the peptides, ex vivo experiments were performed using human explants as previously described. Briefly, human gastric tissue samples were obtained from patients undergoing surgery at the Hospital Laveran (Marseille, France), unit of gastrointestinal surgery according to a collaborative clinical transfer project. The procedures were approved by the French ethic committee (CODECOH n° DC-2019-3402). All patients agreed for the use of their tissues for research purposes. Samples were taken from healthy patients during sleeve gastrectomy from macroscopically unaffected area as identified by the surgeons. After resection, the specimens were placed in ice-cold oxygenated sterile DMEM solution containing 1% streptomycin/penicillin solution and 50 μg/mL gentamycin and were directly transferred to the laboratory within 15 min on ice. Gastric tissues were extensively washed and maintained in ice-cold culture media containing 1% streptomycin/penicillin solution and 50 μg/mL gentamycin. […] Quantification of the release of LDH was also used in addition to microscopic observations to evaluate the impact of peptides on human gastric explants. […] The LDH activity was measured using previously described protocol with minor changes. […] Increase in OD339nm was then measured at 30 °C after 0, 1, 5, and 10 min using microplate reader (Synergy Mx, Biotek). […]

[1] = test system: clinical strains of H. pylori; conditions: for MIC: MH + 10% FBS + 2% isovitale-X
From the text: (§1) H. pylori used in this study were either the reference strain obtained from the American Type Culture Collection (ATCC 43504) or clinical strains received frozen from our collaborator Josette Raymond from Hospital Cochin, Paris. Strains were obtained from patients who underwent a gastroendoscopy performed for various gastro-intestinal disorders according to the recommendations of Haute Autorité de Santé (HAS). During the endoscopy, biopsy samples were taken from antrum and corpus. Samples were then crushed, and the material was used for bacterial culture and molecular methods. An antibiogram was performed and strains were then frozen at -80 °C in a broth with 10% glycerol. Bacteria were cultured as previously described. Briefly, H. pylori (ATCC 43504) was cultured in brain heart infusion (BHI) and incubated at 37 °C for 16 h in microaerophilic condition in BD GasPak EZ using BD GasPak EZ CampyPak container system sachets (BD Biosciences, Le Pont-de-Claix, France). For clinical strains, a sample from the frozen bacteria was streaked on Blood Agar (Base) (Sigma-Aldrich, Illkirch-Graffenstaden, France) supplemented with 5% horse defibrinated blood (Fisher Scientific, Les Ulis, France) and 2% isovitale-X (Fisher Scientific, Illkirch-Graffenstaden, France). The petri dishes were then incubated at 37 °C for 4–7 days in microaerophilic condition. Then, a colony is transferred to 3 mL Mueller Hinton (MH) broth supplemented with 10% fetal bovine serum (FBS) and 2% isovitale-X. The cultures were then incubated for 4–7 days until the bacteria grow before further experiments.
(§2) Briefly, after the growth of H. pylori in liquid culture the optical density (OD) of the bacterial suspensions were read at 600 nm and adjusted to one. Stock solutions of the peptides at 1 mM were prepared in sterile water. Bacteria were diluted in medium to reach bacterial density around 10^5 bacteria/mL. One-hundred microliters per well of bacterial suspension were then added into sterile polypropylene 96-well microplates (Greiner BioOne, Paris, France) and exposed to increasing concentrations of peptides (from zero to 100 µM, 1:2 serial dilution). […] Plates were incubated at 37 °C for 24 h for H. pylori (ATCC 43504) and for 4–7 days for the clinical strains. H. pylori was tested in microaerophilic conditions generated using micro-anaerobic BD GasPak system. At the end of the incubation, OD600nm was measured using microplate reader (Synergy Mx, Biotek, Colmar, France). The MIC was defined as the lowest concentration of drug that inhibited visible growth of the organism. Experiments were conducted in independent triplicate (n = 3).

H. pylori (ATCC 43504) = test system: H. pylori (ATCC 43504)
From the text: as §1, §2

With CC[C@H](C)[C@H](NC(=O)CNC(=O)[C@H](CO)NC(=O)[C@H](CC(C)C)NC(=O)[C@@H](N)Cc1ccccc1)C(=O)N[C@H](C(=O)NCC(=O)N[C@@H](CCSC)C(=O)N[C@@H](CC(C)C)C(=O)N[C@H](C)C(=O)N[C@@H](CCCCN)C(=O)N[C@@H](CC(C)C)C(=O)N[C@@H](Cc1ccccc1)C(N)=O)C(C)C [NST1, H-Phe^1-Leu^2-Ser^3-Gly^4-Ile^5-Val^6-Gly^7-Met^8-Leu^9-D-Ala^10-Lys^11-Leu^12-Phe^13-NH2] (H-FLSGIVGML[dA]KLF-NH2) the “tissue organization by microscopic observation” value (human gastric explants) was “tissue organization close to the negative controls”, the “MIC values against resistant clinical strains (span over all strains)” value ([1]; all resistant clinical strains, MH + 10% FBS) was 6.25 to 12.5 µM and the MIC ([1]; clinical strain BM18, resistance Clari/Metro) was 12.5 µM. For the same compound, the MIC ([1]; clinical strain EM68, resistance Clari/Metro) was 12.5 µM, the MIC ([1]; clinical strain LN18, resistance Clari) was 6.25 µM and the MIC ([1]; clinical strain MF76, resistance Clari/Metro) was 12.5 µM. For the same compound, the MIC ([1]; clinical strain MP78, resistance Clari/Metro) was 12.5 µM, the MIC ([1]; clinical strain MS67, resistance Clari/Metro) was 12.5 µM and the MIC ([1]; clinical strain NM44, resistance Clari/Metro) was 6.25 µM. The “MIC on H. pylori (ATCC 43504)” value (H. pylori (ATCC 43504); MH medium, 24 h, microaerophilic) was 1.5 µM and the “MIC on H. pylori (ATCC 43504) in MH supplemented with 10% FBS” value (H. pylori (ATCC 43504); MH supplemented with 10% FBS) was 6.25 µM.
